Activity calls are given as the source filed them. Rule as the data show it: actives have a measured IC50 and inactives only a lower limit.
target: Envelope glycoprotein gp160 (Human immunodeficiency virus 1, UniProt Q6QLK5); assay: cell-free HIV fusion peptide-binding blockers – biochemical, uHTS, fluorescence dequenching, […] (AID 1986)
Sequence (Q6QLK5 whole entry, the tested form may be a part): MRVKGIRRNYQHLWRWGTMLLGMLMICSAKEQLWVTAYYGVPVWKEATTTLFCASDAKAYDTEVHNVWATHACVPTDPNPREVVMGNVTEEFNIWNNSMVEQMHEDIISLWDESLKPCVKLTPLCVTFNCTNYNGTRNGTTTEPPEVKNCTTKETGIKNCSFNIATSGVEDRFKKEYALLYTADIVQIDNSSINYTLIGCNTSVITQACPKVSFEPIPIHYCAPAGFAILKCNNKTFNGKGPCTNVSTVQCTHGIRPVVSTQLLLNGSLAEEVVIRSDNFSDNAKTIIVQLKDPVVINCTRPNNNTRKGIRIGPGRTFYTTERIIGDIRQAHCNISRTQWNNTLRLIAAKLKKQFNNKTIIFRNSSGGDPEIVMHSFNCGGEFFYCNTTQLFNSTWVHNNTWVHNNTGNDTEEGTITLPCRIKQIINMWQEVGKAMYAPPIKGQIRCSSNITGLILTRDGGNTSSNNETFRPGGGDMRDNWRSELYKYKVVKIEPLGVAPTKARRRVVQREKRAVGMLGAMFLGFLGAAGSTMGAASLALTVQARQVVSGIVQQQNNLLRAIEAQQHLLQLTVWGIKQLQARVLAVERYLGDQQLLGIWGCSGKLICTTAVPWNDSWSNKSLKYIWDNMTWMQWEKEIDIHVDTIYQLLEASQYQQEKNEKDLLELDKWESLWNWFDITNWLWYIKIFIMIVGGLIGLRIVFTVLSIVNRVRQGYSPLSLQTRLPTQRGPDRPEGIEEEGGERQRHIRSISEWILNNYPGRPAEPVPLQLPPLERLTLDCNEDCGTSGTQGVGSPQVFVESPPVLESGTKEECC

SMILES	IC50
O=C(COc1ccc2ccccc2c1)Nc1cccc(C(=O)Nc2ccccc2C(=O)O)c1	14.3 µM (active)
CCOC(=O)c1sc(N2C(=O)C(O)=C(C(=O)c3ccco3)C2c2ccc([N+](=O)[O-])cc2)nc1C (stereo not given)	17.6 µM (active)
O=C(O)c1ccc(Nc2nc(-c3cc4ccccc4oc3=O)cs2)cc1O	11.5 µM (active)
O=C(O)CCN1C(=O)/C(=C\c2cccc(OCC(=O)Nc3ccc(Cl)cc3)c2)SC1=S	13.2 µM (active)
COc1ccccc1OCCOc1ccc(/C=C2\C(=N)N3N=C(S(C)(=O)=O)SC3=NC2=O)cc1	33.8 µM (active)
